# Laboratory results taken from US11969428B2, “Methods and pharmaceutical compositions for treating lymphoid malignancy” (priority 2011, dated 2024).
# Experiments:
# [1] = target: T1, ACVRL1 (Homo sapiens, UniProt P37023); assay: Ambit KinomeScan screening; type: binding; details: CAL-130 10 μM
# T1 construct: purchased Ambit (KinomeScan screening)
# Outline: (§1)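 Tagged kinases are exposed to an immobilized bait ligand with CAL-130 (10 μM) present. Kinase binding to the bait is then quantified relative to control. Results are given as % of control, where over 35% is scored as no hit.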
# [2] = target: T2, AMPK-α1 (Homo sapiens, UniProt Q13131); assay: Ambit KinomeScan screening; type: binding; details: CAL-130 10 μM
# T2 construct: purchased Ambit (KinomeScan screening)
# Outline: as §1
# [3] = target: T3, ASK2 (Homo sapiens, UniProt O95382); assay: Ambit KinomeScan screening; type: binding; details: CAL-130 10 μM
# T3 construct: purchased Ambit (KinomeScan screening service)
# Outline: as §1
# [4] = target: T4, BRSK2 (Homo sapiens, UniProt Q8IWQ3); assay: Ambit KinomeScan screening; type: binding; details: CAL-130 10 μM
# T4 construct: unspecified tag ("tagged kinases"); purchased Ambit (KinomeScan screening)
# T4 sequence (Q8IWQ3 whole entry): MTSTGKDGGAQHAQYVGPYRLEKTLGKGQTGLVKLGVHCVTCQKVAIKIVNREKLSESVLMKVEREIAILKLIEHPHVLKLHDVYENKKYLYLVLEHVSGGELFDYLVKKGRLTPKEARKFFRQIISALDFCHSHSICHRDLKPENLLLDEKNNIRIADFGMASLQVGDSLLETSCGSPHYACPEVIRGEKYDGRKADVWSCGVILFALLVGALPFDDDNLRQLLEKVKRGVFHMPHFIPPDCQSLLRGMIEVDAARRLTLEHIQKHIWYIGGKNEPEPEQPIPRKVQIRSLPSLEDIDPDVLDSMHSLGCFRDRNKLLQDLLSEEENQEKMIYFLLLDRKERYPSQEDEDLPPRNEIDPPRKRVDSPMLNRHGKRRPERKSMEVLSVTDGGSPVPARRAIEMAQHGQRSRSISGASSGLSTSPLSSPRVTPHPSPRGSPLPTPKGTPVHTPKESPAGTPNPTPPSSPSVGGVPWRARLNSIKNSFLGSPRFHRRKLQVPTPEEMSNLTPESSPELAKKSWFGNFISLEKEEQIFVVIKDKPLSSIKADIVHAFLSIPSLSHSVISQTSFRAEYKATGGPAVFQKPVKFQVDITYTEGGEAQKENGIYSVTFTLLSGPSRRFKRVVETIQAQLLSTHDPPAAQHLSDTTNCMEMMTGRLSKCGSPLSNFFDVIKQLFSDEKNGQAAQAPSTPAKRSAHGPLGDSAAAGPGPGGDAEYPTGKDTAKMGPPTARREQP
# Outline: as §1
# [5] = target: T5, FLT4 (Homo sapiens, UniProt P35916); assay: Ambit KinomeScan screening; type: binding; details: CAL-130 10 μM
# T5 construct: unspecified tag ('tagged kinases'); purchased Ambit (KinomeScan screening service)
# Outline: as §1
# [6] = target: T6, HIPK3 (Homo sapiens, UniProt Q9H422); assay: Ambit KinomeScan screening; type: binding; details: CAL-130 10 μM
# T6 construct: Ambit (KinomeScan screening)
# T6 sequence (Q9H422 whole entry): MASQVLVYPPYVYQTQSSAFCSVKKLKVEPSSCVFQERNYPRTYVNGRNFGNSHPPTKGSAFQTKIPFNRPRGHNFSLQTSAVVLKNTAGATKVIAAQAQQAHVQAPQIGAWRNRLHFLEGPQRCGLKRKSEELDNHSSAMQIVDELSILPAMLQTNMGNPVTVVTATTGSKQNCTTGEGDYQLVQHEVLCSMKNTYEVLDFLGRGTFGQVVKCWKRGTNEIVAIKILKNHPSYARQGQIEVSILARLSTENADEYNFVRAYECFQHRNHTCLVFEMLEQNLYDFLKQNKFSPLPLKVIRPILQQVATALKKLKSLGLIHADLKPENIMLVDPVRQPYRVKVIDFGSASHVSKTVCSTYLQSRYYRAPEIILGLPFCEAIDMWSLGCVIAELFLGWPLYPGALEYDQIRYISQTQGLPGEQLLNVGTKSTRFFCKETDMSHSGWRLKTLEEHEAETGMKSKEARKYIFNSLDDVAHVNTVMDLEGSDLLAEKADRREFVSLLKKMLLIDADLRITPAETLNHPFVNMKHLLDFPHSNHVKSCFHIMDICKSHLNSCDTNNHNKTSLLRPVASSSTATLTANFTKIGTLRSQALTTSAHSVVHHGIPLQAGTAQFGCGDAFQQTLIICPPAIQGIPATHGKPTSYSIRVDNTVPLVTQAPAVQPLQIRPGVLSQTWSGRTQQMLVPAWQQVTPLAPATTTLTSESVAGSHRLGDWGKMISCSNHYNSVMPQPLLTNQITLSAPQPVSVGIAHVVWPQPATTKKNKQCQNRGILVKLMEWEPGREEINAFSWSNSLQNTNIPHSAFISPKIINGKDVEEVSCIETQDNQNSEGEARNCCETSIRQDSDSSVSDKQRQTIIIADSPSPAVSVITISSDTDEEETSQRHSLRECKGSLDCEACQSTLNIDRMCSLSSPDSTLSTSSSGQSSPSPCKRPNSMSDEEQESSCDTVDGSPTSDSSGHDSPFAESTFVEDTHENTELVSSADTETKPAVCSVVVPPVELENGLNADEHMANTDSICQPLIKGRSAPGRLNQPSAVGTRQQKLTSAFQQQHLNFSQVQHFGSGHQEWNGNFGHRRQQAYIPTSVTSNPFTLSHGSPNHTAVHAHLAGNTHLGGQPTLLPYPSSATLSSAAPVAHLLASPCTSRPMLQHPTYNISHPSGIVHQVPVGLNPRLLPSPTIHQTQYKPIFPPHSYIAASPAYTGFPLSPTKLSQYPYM
# Outline: as §1
# [7] = target: T7, JNK3 (Homo sapiens, UniProt P53779); assay: Ambit KinomeScan screening; type: binding; details: CAL-130 10 μM
# T7 construct: purchased Ambit (KinomeScan screening)
# T7 sequence (P53779 whole entry): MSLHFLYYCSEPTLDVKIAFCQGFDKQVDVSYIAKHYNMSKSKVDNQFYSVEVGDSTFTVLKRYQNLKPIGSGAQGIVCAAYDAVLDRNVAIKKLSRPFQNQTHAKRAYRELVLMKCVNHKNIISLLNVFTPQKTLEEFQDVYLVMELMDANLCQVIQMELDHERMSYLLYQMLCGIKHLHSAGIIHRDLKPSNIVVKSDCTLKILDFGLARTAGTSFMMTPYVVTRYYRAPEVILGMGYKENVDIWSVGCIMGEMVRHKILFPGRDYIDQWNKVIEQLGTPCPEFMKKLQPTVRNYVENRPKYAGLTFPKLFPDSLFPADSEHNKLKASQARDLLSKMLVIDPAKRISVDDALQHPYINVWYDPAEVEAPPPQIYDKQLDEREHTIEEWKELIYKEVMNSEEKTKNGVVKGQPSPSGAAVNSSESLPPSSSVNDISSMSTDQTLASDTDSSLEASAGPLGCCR
# Outline: as §1
# [8] = target: T8, NEK5 (Homo sapiens, UniProt Q6P3R8); assay: Ambit KinomeScan screening; type: binding; details: CAL-130 10 μM
# T8 construct: unspecified tag; purchased Ambit (KinomeScan screening panel)
# Outline: as §1
# [9] = target: T9, PIM2 (Homo sapiens, UniProt Q9P1W9); assay: Ambit KinomeScan screening; type: binding; details: CAL-130 10 μM
# T9 construct: unspecified tag; purchased Ambit (KinomeScan screening panel)
# T9 sequence (Q9P1W9 whole entry): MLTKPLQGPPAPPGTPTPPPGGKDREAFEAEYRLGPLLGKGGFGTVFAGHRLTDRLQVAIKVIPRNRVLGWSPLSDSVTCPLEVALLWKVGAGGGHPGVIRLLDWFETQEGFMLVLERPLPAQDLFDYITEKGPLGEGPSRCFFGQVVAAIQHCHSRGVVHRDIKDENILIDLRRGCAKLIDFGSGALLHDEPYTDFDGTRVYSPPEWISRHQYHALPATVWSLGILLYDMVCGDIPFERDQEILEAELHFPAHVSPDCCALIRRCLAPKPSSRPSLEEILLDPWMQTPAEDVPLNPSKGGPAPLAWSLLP
# Outline: as §1
# [10] = target: T10, PLK3 (Homo sapiens, UniProt Q9H4B4); assay: Ambit KinomeScan screening; type: binding; details: CAL-130 10 μM
# T10 construct: purchased Ambit (KinomeScan screening service)
# T10 sequence (Q9H4B4 whole entry): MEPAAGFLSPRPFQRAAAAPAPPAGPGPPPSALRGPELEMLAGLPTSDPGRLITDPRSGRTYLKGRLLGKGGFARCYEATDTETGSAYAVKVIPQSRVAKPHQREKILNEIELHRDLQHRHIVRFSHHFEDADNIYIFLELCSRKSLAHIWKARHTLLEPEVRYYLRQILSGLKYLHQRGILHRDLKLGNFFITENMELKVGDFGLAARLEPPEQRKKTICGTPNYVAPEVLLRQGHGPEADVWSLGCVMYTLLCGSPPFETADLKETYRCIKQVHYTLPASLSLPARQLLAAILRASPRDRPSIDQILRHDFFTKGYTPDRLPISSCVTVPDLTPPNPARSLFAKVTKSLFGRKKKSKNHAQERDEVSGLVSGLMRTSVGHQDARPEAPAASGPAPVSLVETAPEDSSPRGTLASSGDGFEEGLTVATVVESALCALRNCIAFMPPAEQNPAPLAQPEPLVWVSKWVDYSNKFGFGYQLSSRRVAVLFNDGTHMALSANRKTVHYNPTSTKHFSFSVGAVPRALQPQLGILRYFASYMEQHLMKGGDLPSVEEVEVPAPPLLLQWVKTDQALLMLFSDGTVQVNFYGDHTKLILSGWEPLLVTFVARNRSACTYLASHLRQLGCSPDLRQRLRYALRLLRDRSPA
# Outline: as §1
# [11] = target: T11, SIK2 (Homo sapiens, UniProt Q9H0K1); assay: Ambit KinomeScan screening; type: binding; details: CAL-130 10 μM
# T11 construct: tag, kind not specified; purchased Ambit (KinomeScan screening service)
# T11 sequence (Q9H0K1 whole entry): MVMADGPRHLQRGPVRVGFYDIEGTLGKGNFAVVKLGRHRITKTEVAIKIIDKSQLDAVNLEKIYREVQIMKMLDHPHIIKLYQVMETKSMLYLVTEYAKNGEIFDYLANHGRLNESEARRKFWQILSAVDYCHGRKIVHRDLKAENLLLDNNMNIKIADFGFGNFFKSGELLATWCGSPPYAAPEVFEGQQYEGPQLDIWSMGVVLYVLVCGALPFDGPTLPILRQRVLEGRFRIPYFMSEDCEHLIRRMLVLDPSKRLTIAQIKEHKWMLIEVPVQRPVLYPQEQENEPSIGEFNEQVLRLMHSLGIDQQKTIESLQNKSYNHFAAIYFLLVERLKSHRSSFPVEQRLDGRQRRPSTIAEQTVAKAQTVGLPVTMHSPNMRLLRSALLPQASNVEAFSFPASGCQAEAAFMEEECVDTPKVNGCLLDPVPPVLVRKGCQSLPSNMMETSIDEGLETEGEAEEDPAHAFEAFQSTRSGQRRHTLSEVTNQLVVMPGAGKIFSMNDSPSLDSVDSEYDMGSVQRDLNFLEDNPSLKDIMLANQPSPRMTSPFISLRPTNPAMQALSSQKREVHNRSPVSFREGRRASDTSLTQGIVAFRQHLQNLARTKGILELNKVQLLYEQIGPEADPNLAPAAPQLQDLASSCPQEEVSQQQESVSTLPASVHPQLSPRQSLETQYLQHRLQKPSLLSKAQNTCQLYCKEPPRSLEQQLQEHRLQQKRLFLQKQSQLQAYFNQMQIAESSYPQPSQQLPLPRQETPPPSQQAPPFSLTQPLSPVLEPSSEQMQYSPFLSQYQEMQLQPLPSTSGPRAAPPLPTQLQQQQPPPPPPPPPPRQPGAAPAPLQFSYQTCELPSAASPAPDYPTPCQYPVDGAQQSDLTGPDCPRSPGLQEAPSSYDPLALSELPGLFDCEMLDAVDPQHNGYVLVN
# Outline: as §1
# [12] = target: T12, TYK2(JH1domain) (Homo sapiens, UniProt P29597); assay: Ambit KinomeScan screening; type: binding; details: CAL-130 10 μM
# T12 construct: TYK2(JH1domain); tag, kind not specified; purchased Ambit (KinomeScan screening service)
# Outline: as §1
# [13] = test system: Ca2+ flux in thymocytes; assay: Calcium flux assay after TCR cross-linking; type: cell-based, mouse; details: wild type thymocytes; to levels of Pik3cg−/−;pik3cd−/− counterparts
# Protocol: Thymocytes or lymphocytes were preloaded with Fluo-4 AM (Molecular Probes, Eugene, OR) at 5 μg/mL for 30 minutes at 37° C., labeled with anti-CD4-APC conjugate (BD Biosciences) to permit gating on this T-cell subset during analysis, and finally washed and resuspended (2×10^6/mL) in DMEM and 10% FCS. After a baseline was established at quiescence, Ca^2+ flux was induced by the addition in tandem of anti-CD3e (hamster antimouse antibody; BD Biosciences) and the anti-hamster IgG polyclonal antibody (Jackson ImmunoResearch, West Grove, PA) for cross-linking. The resultant flux in Ca^2+ was measured for 5 minutes by flow cytometry, and total flux was established by the addition of ionomycin (0.5 μg/mL). Drug inhibition of Ca^2+ flux was measured after 30 minute pre-incubation with CAL-130 at room temperature of dye loaded cells. Percentage overall change in Ca^2+ flux is reported as (Ca^2+ fluxpeak−Ca^2+ fluxbaseline/Ca^2+fluxionomycin−Ca^2+fluxbaseline)×100.
# [14] = Plasma glucose and insulin levels; type: in vivo, mouse; details: single oral dose 10 mg kg−1
# Protocol: Plasma glucose and insulin levels were determined following a single oral dose of CAL-130 (10 mg kg^−1). Blood was collected into K2EDTA tubes by cardiac puncture at baseline and 0, 2, 4, and 8 hours post-dose, and plasma samples frozen at −80° C. until analysis. The insulin and glucose levels were determined by using an Ultra Sensitive Mouse Insulin ELISA Kit (Crystall Chem Inc.) or WaveSense Presto Blood Glucose Monitoring System (Agamatrix Inc., Boston, MA), respectively.
# [15] = test system: CCRF-CEM xenografts; assay: Subcutaneous CCRF-CEM (CEM-luc) xenograft, bioluminescence; type: in vivo, mouse; details: 10 mg kg−1 every 8 hours for 4 days
# Protocol: For subcutaneous xenograft experiments, luminescent CCRF-CEM (CEM-luc) cells were generated by lentiviral infection with FUW-luc and selection with neomycin. Luciferase expression was verified with the Dual-Luciferase Reporter Assay kit (Promega Corp., Madison, WI). […] After 1 week, mice were treated by oral gavage with vehicle (0.5% methyl cellulose, 0.1% Tween-80), or CAL-130 (10 mg kg^−1) (Gilead Sciences, Foster City, CA) every 8 hours daily for 4 days and then tumors imaged as follows: mice anesthetized by isoflurane inhalation were injected intraperitoneally with D-luciferin (50 mg kg^−1, Xenogen, Calipers Life Sciences, Hopkinton, MA). Photonic emission was imaged with the In Vivo Imaging System (IVIS, Xenogen). Tumor bioluminescence was quantified by integrating the photonic flux (photons per second) through a region encircling each tumor using the LIVING IMAGES software package (Xenogen).
# In the former, luciferase expressing CCRF-CEM cells were injected into the flanks of immunodeficient mice and allowed to grow for 1 week before administering vehicle control or inhibitor (10 mg kg^−1 every 8 hours) for a total of 4 days. In the latter, treatment commenced 3 days post-injection of tumor cells for a total of 7 days. […]
# [16] = test system: primary human T-ALL tumor cells; assay: Akt phosphorylation in primary T-ALL samples (immunoblot); type: cell-based; details: 6 hours of treatment
# Protocol: Cell lysates (from cell lines or thymocytes) were prepared on ice in M-PER Mammalian Protein Extraction reagent (Pierce) containing a cocktail of protease and phosphatase inhibitors (Swat et al., 2006). Equal amounts of total protein from lysates were subjected to SDS-PAGE, transferred to PVDF membrane (Immobilon-P, Millipore), and membranes probed by overnight incubation with appropriate primary antibodies. Bound antibodies were visualized with HRP-conjugated secondary antibodies and ECL chemistry (SuperPico West, Pierce).
# T1 sequence (P37023 22-503): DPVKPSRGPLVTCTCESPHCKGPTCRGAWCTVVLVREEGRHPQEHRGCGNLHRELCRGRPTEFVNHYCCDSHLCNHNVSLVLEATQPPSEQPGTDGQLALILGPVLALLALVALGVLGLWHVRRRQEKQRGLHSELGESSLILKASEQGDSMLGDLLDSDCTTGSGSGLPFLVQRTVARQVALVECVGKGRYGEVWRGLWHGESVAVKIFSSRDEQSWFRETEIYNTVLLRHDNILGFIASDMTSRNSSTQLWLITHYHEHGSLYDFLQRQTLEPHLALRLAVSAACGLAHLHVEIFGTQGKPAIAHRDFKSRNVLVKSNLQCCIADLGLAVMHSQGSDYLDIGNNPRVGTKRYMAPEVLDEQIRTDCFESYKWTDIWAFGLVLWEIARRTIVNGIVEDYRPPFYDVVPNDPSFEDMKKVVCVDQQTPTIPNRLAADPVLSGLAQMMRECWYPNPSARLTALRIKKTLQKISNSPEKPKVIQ
structure (smiles),measurement,setting,value
Cc1ccccc1-n1c(C(C)Nc2nc(N)nc3nc[nH]c23)nc2cccc(C)c2c1=O (centres unmarked) [CAL-130],Percent of Control Binding,[1],100%
same,Percent of Control Binding,[2],100%
same,Percent of Control Binding,[3],100%
same,Percent of Control Binding,[4],100%
same,Percent of Control Binding,[5],100%
same,Percent of Control Binding,[6],100%
same,Percent of Control Binding,[7],100%
same,Percent of Control Binding,[8],100%
same,Percent of Control Binding,[9],100%
same,Percent of Control Binding,[10],100%
same,Percent of Control Binding,[11],100%
same,Percent of Control Binding,[12],100%
same,calcium flux in response to TCR cross-linking,[13],attenuated
same,plasma glucose levels,[14],did not affect
same,plasma insulin levels,[14],did not affect
same,"difference in luminescence, treated versus vehicle control",[15],5 fold
same,Akt phosphorylation,[16],reduction
